From PubChem BioAssay AID179 (DTP/NCI, 2004)
Where “and” joins values, the source holds several entries; their conditions need not be identical. Equal entries are not always repeated. Calls of active or inactive are those of the source.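 Rule for the calls: active = compounds giving half or more protection of infected cells from virus-caused growth loss, again on retest; inactive = the rest.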

System: CEM cells HIV-1 protection, formazan growth assay
Assay: NCI AIDS Antiviral Assay
Details: for IC50: measured here: growth of uninfected CEM cells
How it was run: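 Soluble formazan readout of cell growth; CEM cells ± HIV-1; 5 drug concs. ≥50% protection → retest; ≥50% again = moderately active; reproducible 100% = confirmed active.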

| SMILES | EC50 [µM] | IC50 | outcome |
| --- | --- | --- | --- |
| CC(=O)c1ccc2c(c1)CC1(C2)Cc2cc3c(c(C(=O)O)c2C1)CCC3 (stereo not drawn) | > 200 | 61.7 µM | – |
| CCOC(=O)CNC(SC)=C(C#N)C#N | – | – | inactive |
| Brc1cc2nn(-c3ccccc3)nc2c2nonc12 | > 200 | > 200 µM | – |
| C[C@H]1CCCCC[C@@H]2CC(=O)CC2C(=O)CCC(=O)O1 (stereo partly drawn) | > 200 | > 200 µM | – |
| O=C/C1=C/C2=Cc3ccccc3C=C(/C=C(/C=O)C1)C2 | > 100 | 43.7 µM | – |
| Cc1cccc2c(N)c3cccc(C(=O)NCCCNCCN)c3nc12 | > 0.2 | 0.12 µM | – |
| NCc1ccc(-c2ccc(CN)s2)s1 | > 28.2 | 13.2 µM | – |
| Nc1ncnc2c1ncn2CC(O)C(=O)O (stereo not drawn) | – | – | inactive |
| CCOC(=O)/C(=C\c1c(C)[nH]c2ccccc12)P(=O)(OCC)OCC | 69.2 | 110 µM | – |
| Cc1c(C(=O)N(CCO)CCO)[n+](=O)c2ccccc2n1[O-] | > 575 | > 575 µM | – |
| O=C(O)Cc1ccc2c(c1)C(=O)c1ccccc1CO2 | – | – | inactive |
| Cc1ccc(-c2nc(SCC(=O)O)n[nH]2)cc1 | > 1000 | 708 µM | – |
| CC(C)C(C(=O)O)N(CC1(O)OCC(O)C(O)C1O)N=O (stereo not drawn) | – | – | inactive |
| CC(=O)N1CCCCCC1=O | > 1620 | > 1620 µM | – |
| COc1ccc(C[C@H](N)C(=O)NC2C(CO)OC(n3cnc4c(N(C)C)ncnc43)C2O)cc1 (stereo partly drawn) | > 200 | 0.117 µM | – |
| CN(C)CC1CCC(CN(C)C)C(=O)C1=O (stereo not drawn) | > 200 | 0.49 µM | – |
| COc1cc(C2c3cc4c(cc3OC(NN=C(C)C)C2C)OCO4)cc(OC)c1O (stereo not drawn) | > 200 | 5.5 µM | – |
| COc1ccc(-c2c(C3=NCCCN3)nnn2-c2ccc([N+](=O)[O-])cc2)cc1 | > 13.8 | > 13.8 µM | – |
| COc1ccc2ccc3[nH]c4c(C)cnc(NCCCN(C)C)c4c3c2c1 | > 2 | 0.331 µM | – |
| CCN(CC)CSc1nc2ccccc2o1 | – | – | inactive |
| O=C1c2ccccc2C(=O)N1N1CC1Br (stereo not drawn) | > 200 | > 200 µM | – |
| O=C1N=NC(=O)c2ccccc21 | > 200 | > 200 µM | – |
| CC1CC/C(=C\c2ccc(Cl)cc2)C2OC(N)=C(C#N)C(c3ccc(Cl)cc3)=C12 (stereo not drawn) | – | – | inactive |

| SMILES | EC50 [µM] | IC50 | outcome |
| --- | --- | --- | --- |
| CCOC(=O)C1(c2ccccc2)CCCNCC1 (stereo not drawn) | > 112 | > 112 µM | – |
| O=C1C=CC(=O)C2C3c4ccccc4C(c4ccccc43)C12 (stereo not drawn) | > 34.7 | > 34.7 µM | – |
| c1ccc2c(c1)CCc1[nH]c3c(c1-2)-c1ccccc1CC3 | > 200 | 30.9 µM | – |
| CC(C)OP(=O)(OC(C)C)C1=NN(c2ccc([N+](=O)[O-])cc2)C(P(=O)(OC(C)C)OC(C)C)=NN1c1ccc([N+](=O)[O-])cc1 | > 2.19 | > 2.19 µM | – |
| CCCC(CCC)C(=O)[O-].CCCC(CCC)C(=O)[O-].CCCC(CCC)C(=O)[O-].CCCC(CCC)C(=O)[O-].[Cu+2].[Cu+2] | > 50.1 | 7.41 µM | – |
| Cc1ccc(S(=O)(=O)/N=C(\N)N(C)N=O)cc1 | > 200 | 63.1 µM | – |
| CCOc1ccccc1NC(=O)CCc1nc(=S)[nH][nH]1 | > 851 | 316 µM | – |
| CCN(CC)CCC(=O)c1ccccc1 | > 871 | > 200 µM and 26.9 µM | – |
| C/C(=C1/CCCC2(N=NCC2c2ccccc2)C1=O)c1ccccc1 (stereo not drawn) | > 8.32 | > 8.32 µM | – |
| CCCCCCCCCCCCCC(=O)OCC(C[As](=O)(O)O)OC(=O)CCCCCCCCCCCCC (stereo not drawn) | > 11.5 | > 11.5 µM | – |
| CCOC(=O)C1(C(C)=O)OC(=O)c2cnccc21 (stereo not drawn) | > 200 | > 200 µM | – |
| CC(C)=CCNc1ncnc2c1ncn2CCC(=O)OC(C)(C)C | > 200 | 117 µM | – |
| CC(=O)C(CN1C(=O)c2ccccc2C1=O)C(C)=O | > 38.9 | > 38.9 µM | – |
| COC12OC3(C4OC41)C(C(=O)O[C@H]3CO[Si](C)(C)C(C)(C)C)C2S(=O)(=O)c1ccccc1 (stereo partly drawn) | > 200 | 129 µM | – |
| Nc1nc2c(ncn2C2C=CC(CO)CC2)c(=O)[nH]1 (stereo not drawn) | > 200 | > 200 µM | – |
| CN(C)C(=O)Nc1c([N+](=O)[O-])cc(C(F)(F)F)cc1[N+](=O)[O-] | – | – | inactive |
| Fc1ccc2nncc(SCc3ccccc3)c2c1 | > 132 | 19.5 µM | – |
| NC(=O)c1nc(-c2ccc(Cl)c(Cl)c2)nc2ccccc12 | – | – | inactive |
| C/C(=N\NS(=O)(=O)c1c(C)cc(C)cc1C)c1ccc[n+]([O-])n1 | – | – | inactive |
| O=C1CN(CCc2ccccc2)CC(=O)N2C(c3ccccc3)CCCN12 (stereo not drawn) | – | – | inactive |
| O=C(O)CN1C(=O)c2ccc(NC(=O)C(=O)O)cc2S1(=O)=O | > 200 | > 200 µM | – |
| CCCCCCCCCCCCOS(=O)(=O)O | > 871 | 195 µM | – |
| CC(=O)O[C@H]1CCC2[C@@H]3CCC4C(=O)c5[nH]ncc5C[C@]4(C)C3CC[C@@]21C (stereo partly drawn) | > 87.1 | > 87.1 µM | – |

| SMILES | EC50 [µM] | IC50 | outcome |
| --- | --- | --- | --- |
| COc1ccc(C(O)C(C)C(O)(C(F)(F)F)C(F)(F)F)cc1 (stereo not drawn) | > 200 | 95.5 µM | – |
| CCOC(=O)C1=C(C)N2CCCOC2(C)C(C(=O)OC)C1c1cccc([N+](=O)[O-])c1 (stereo not drawn) | > 200 | 69.2 µM | – |
| COc1ccc2c(ccc3c(COC(=O)NC(C)C)c(COC(=O)NC(C)C)n(C)c32)c1 | > 200 | 0.112 µM | – |
| FC(F)(F)c1cccc(N2NC(=S)N3C=CC=CC32)c1 (stereo not drawn) | > 83.2 | > 83.2 µM | – |
| O=C(Nc1cc([N+](=O)[O-])cc([N+](=O)[O-])c1)OC1C2CCC1C1OC1C2 (stereo not drawn) | > 14.8 | > 14.8 µM | – |
| Nc1[nH]c(=S)[nH]c(=O)c1N=O | > 200 | > 200 µM | – |
| NCCCCN(CCCN)Cc1ccccc1 | – | – | inactive |
| CC(C)(C)OC(=O)C1C(=O)C(C(=O)OC(C)(C)C)C23CCCCC12C(C(=O)OC(C)(C)C)C(=O)C3C(=O)OC(C)(C)C (stereo not drawn) | > 30.2 | > 30.2 µM | – |
| COc1ccc(C2SCC(=O)N2c2ccc(-n3c(-c4ccccc4)nc4ccccc4c3=O)cc2)cc1 (stereo not drawn) | > 200 | 158 µM | – |
| CC1(C)COC2(C)ON12 (stereo not drawn) | > 200 | > 200 µM | – |
| CC(=O)OCC1OC(n2c3c(cc(C#N)c2=S)CCCCCC3)C(OC(C)=O)C(OC(C)=O)C1OC(C)=O (stereo not drawn) | > 200 | 52.5 µM | – |
| Cn1nc(N)nc1N=S(C)(C)=N | > 1320 | > 1320 µM | – |
| CCOC(=O)C1CN(C2CC2)CCC1=O (stereo not drawn) | > 200 | > 200 µM | – |
| O=C(CCCN1CCC2(CC1)CC(=O)N(N1CCCCCC1)C2=O)c1ccc(F)cc1 | > 200 | > 200 µM | – |
| O=S(Cc1ccccc1)c1nc2ccccc2nc1-c1cccs1 (stereo not drawn) | > 74.1 | 13.5 µM | – |
| CC1=NN(c2ccccc2)C(=O)/C1=C\n1c(=S)[nH]c2ccccc21 | > 200 | 87.1 µM | – |
| CSc1nc(C)c(CCOC(C)=O)c(Cl)n1 | > 200 | > 200 µM | – |
| CCCOC(=O)CCC(NC(=O)c1ccc(Nc2nc3ccccc3nc2-c2cccs2)cc1)C(=O)OCCC (stereo not drawn) | > 4.9 | > 4.9 µM | – |
| CCOC(=O)Cc1c(C)c2ccc(OC(C)=O)c(OC(C)=O)c2oc1=O | > 200 | 36.3 µM | – |
| COc1cc(C(O)C(O)c2cc(CN3CCOCC3)c(O)c(OC)c2)cc(CN2CCOCC2)c1O (stereo not drawn) | > 200 | > 200 µM | – |
| CC(=O)OCC1OC(n2c(=S)n(-c3ccccc3)c(=S)c3ccccc32)C(OC(C)=O)C(OC(C)=O)C1OC(C)=O (stereo not drawn) | > 16.6 | > 16.6 µM | – |
| CCCCC(=O)c1c(O)nc2sccn2c1=O | > 200 | 155 µM | – |
| CCOC(=O)Cn1c(=O)c(-c2ccccc2NC(C)=O)nc2ccccc21 | > 200 | > 200 µM | – |

| SMILES | EC50 [µM] | IC50 | outcome |
| --- | --- | --- | --- |
| O=C1C2=C(c3ccccc31)C(c1ccccc1Cl)N1C(=O)CSC1=N2 (stereo not drawn) | > 37.2 | > 37.2 µM | – |
| COc1ccc(/C=C(\C#N)c2ccccc2)cc1 | > 8.51 | 6.31 µM | – |
| CCCCCCCCCCCCOP(=O)(O)OP(=O)(O)OCC1OC(n2cc(C)c(=O)[nH]c2=O)CC1O (stereo not drawn) | > 200 | 102 µM | – |
| c1ccc(-c2cc(-c3cccs3)c(-c3cccs3)s2)cc1 | > 200 | 36.3 µM | – |
| O=[N+]([O-])c1ccc(-c2csc3nc(-c4ccccc4)nn23)cc1 | > 200 | > 200 µM | – |
| Cc1c2c(n(CCc3ccccc3)c1C)N(C)N=C(C#N)S2(=O)=O | > 200 | > 200 µM | – |
| c1ccc(CC(c2ccccc2)N2CCOCC2)cc1 (stereo not drawn) | – | – | inactive |
| CCOc1ccc(/C=C(\Cl)c2ccc(OC)c(OC)c2)cc1 | > 200 | 191 µM | – |
| Cc1c2c(n(CCc3ccccc3)c1C)NN=C(C#N)S2(=O)=O | > 200 | > 200 µM | – |
| CC1=C(C#N)C(=O)N(/N=C/c2ccc(Cl)cc2)C(=O)/C1=c1\o/c(=C2/C(=O)N(/N=C/c3ccc(Cl)cc3)C(=O)C(C#N)=C2C)c2nccnc12 | > 200 | 110 µM | – |
| N#CI1OC(C(F)(F)F)(C(F)(F)F)c2ccccc21 | > 200 | 9.55 µM | – |
| CCOC1CN(C)C(=Nc2cccc3ccccc23)S1 (stereo not drawn) | 4.9 | 148 µM | – |
| N#C/C(=C\c1ccc(O)c(O)c1)C(=O)Nc1ccc(C(=O)O)cc1 | > 200 | 38.9 µM | – |
| C=CCOCn1ccc(=O)[nH]c1=O | > 200 | > 200 µM | – |
| CN(C)CCSc1cccc(-c2cc(-c3cccc(SCCN(C)C)c3)ncn2)c1 | > 21.9 | 8.71 µM | – |
| COc1ccccc1NC1=NCC(C)S1 (stereo not drawn) | > 200 | > 200 µM | – |
| O=C1C2=C(Nc3cc([N+](=O)[O-])ccc3N2)OC1c1ccccc1 (stereo not drawn) | > 17 | > 17 µM | – |
| Nc1cccc(S(=O)(=O)NCC(=O)O)c1 | – | – | inactive |
| Nc1ccccc1C(=O)N=Nc1c(O)[nH]c2ccccc12 | > 200 | > 200 µM | – |
| COC(=O)C(=O)C(C(=O)C(=O)Nc1nc(=S)[nH][nH]1)c1nc2ccc([N+](=O)[O-])cc2[nH]c1=O (stereo not drawn) | > 282 | > 282 µM | – |
| Cc1ccc(SC(C)/C=C/NNC2=NC(c3ccccc3)C(c3ccccc3)=NN2)cc1 (stereo not drawn) | > 22.4 | > 22.4 µM | – |
| CC1(c2ccccc2)OC(=O)c2c1ccc1ccccc21 (stereo not drawn) | – | – | inactive |
